Test results from patent US20220194939A1, “Novel compounds and methods of use treating fructose-related disorders or diseases” (Colorado Research Partners, LLC, priority 2019, published 2022).
Counter-ions that a name gives are not always drawn.

target: T1, KHK (Homo sapiens, UniProt P50053); test: coupled enzyme assay for KHK activity; type: biochemical; details: purified human recombinant KHK, PK/LDH coupled assay, A340 at 25° C., 0.1 mM ATP, 0.2 mM fructose; isoform (KHK-C or KHK-A) not given
T1 construct: (His)6 tag (N); thrombin cleavage site (N); made in house; host or cells: E. coli BL-21 (DE3)
T1 sequence (P50053 1-298): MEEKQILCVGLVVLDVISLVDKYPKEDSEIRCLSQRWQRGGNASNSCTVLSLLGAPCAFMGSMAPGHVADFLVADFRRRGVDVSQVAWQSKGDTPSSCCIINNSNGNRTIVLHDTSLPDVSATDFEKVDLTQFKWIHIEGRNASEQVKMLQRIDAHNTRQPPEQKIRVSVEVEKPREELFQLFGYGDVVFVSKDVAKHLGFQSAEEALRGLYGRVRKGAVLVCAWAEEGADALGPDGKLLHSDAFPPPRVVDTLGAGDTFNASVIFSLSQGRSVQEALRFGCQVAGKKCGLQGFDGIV
Excerpt: Specific coupled enzyme screening assays were developed for KHK-C and KHK-A using recombinant proteins. Purified human recombinant KHK-C and KHK-A were produced using by expression in E. coli BL-21 (DE3) using IPTG induction as a His-tagged fusion proteins and purified using Ni-NTA chromatography on His-Trap FF columns. For KHK-C, the coding region from NCBI refseq number NM_006488 was inserted at the Nde I site of pET28a(+) vector, which puts it downstream from an amino-terminal (His)6 tag and a thrombin cleavage site. The same was done for KHK-A using the coding regions from NCBI refseq number NM_000221.2. The protein was expressed in BL-21 (DE3) using IPTG induction and purified using Ni-NTA (GE His Trap FF) column. The protein was washed with 100 column volumes, eluted with 3 column volumes, and dialyzed with HEPES, pH 7.4 buffers containing 20, 500, and 0 mM imidazole, respectively. The dialysate was concentrated by ultrafiltration (10kD MWCO) to >15 mg/mL protein. The protein prep was >95% pure on SDS-PAGE and the molecular weight was confirmed by relative mobility to be 33,730 Da (34,826 expected).
The assay uses the product of the KHK reaction, ADP, to drive a signal measured in real time for measuring the reaction rate. This consists of a 3-step, coupled-enzyme process by which pyruvate kinase (PK), which converts the ADP from the KHK reaction along with phosphoenolpyruvate (PEP) to ATP and pyruvate, respectively. The pyruvate is converted along with NADH to lactate and NAD+ by lactate dehydrogenase (LDH). The disappearance of NADH is measured kinetically by monitoring A340 at 25° C. for 15 minutes. The enzymatic assay was carried out in a total reaction volume of 200 μL containing 33 mM triethanolamine-HCl, pH 7.4, 6 mM MgCl2, 100 mM KCl, 0.1 mM ATP, 1.33 mM PEP, 0.3 mM NADH, 0.2-1.0 U of PK, 0.2-1.0 U of LDH, and 150-240 nM KHK-C or KHK-A (0.01-0.02 U). Fructose was added to initiate the reactions to 0.2 mM, except for the no fructose controls which utilized water. This high-throughput assay was used to identify inhibitors that have an IC50 value<1 μM for KHK-C and to confirm that those values for KHK-A were not more than 2-fold lower.

Row | Compound | IC50 [µM]
1 | Cc1cccc(-n2ncc3ccc(NC(=O)[C@H]4CC[C@@H]4N)cc32)c1 (relative stereo) [Compound 9, trans-2-amino-N-(1-(m-tolyl)-1H-indazol-6-yl)cyclobutanecarboxamide hydrochloride] | 0.67
2 | Cc1cccc(-n2ncc3ccc(NC(=O)C(N)CO)cc32)c1 (centres unmarked) [Compound 1, 2-amino-3-hydroxy-N-(1-(m-tolyl)-1H-indazol-6-yl)propanamide hydrochloride] | 0.12
3 | Cc1cccc(-n2ncc3ccc(NC(=O)[C@H](N)CO)cc32)c1 [Compound 2, (R)-2-amino-3-hydroxy-N-(1-(m-tolyl)-1H-indazol-6-yl)propanamide hydrochloride] | 0.12
4 | Cc1cccc(-n2ncc3ccc(NC(=O)[C@@H](N)CO)cc32)c1 [Compound 3, (S)-2-amino-3-hydroxy-N-(1-(m-tolyl)-1H-indazol-6-yl)propanamide hydrochloride] | 0.04
5 | Cc1cccc(-n2ncc3ccc(NC(=O)[C@H](CN)CO)cc32)c1 [Compound 4, (R)-3-amino-2-(hydroxymethyl)-N-(1-(m-tolyl)-1H-indazol-6-yl)propanamide hydrochloride] | 0.62
6 | Cc1cccc(-n2ncc3ccc(NC(=O)[C@H](C)N)cc32)c1 [Compound 6, (S)-2-amino-N-(1-(m-tolyl)-1H-indazol-6-yl)propanamide hydrochloride] | 0.11
7 | Cc1cccc(-n2ncc3ccc(NC(=O)[C@@H](C)N)cc32)c1 [Compound 7, (R)-2-amino-N-(1-(m-tolyl)-1H-indazol-6-yl)propanamide hydrochloride] | 0.27
8 | Cc1cccc(-n2ncc3ccc(NC(=O)C(CN)C(C)C)cc32)c1 (centres unmarked) [Compound 8, 2-(aminomethyl)-3-methyl-N-(1-(m-tolyl)-1H-indazol-6-yl)butanamide hydrochloride] | 4.9
9 | Cc1cccc(-n2ncc3ccc(NC(=O)[C@@H](N)CCO)cc32)c1 [Compound 10, (S)-2-amino-4-hydroxy-N-(1-(m-tolyl)-1H-indazol-6-yl)butanamide hydrochloride] | 0.4
10 | Cc1cccc(-n2ncc3ccc(NC(=O)C[C@H](N)CO)cc32)c1 [Compound 11, (S)-3-amino-4-hydroxy-N-(1-(m-tolyl)-1H-indazol-6-yl)butanamide hydrochloride] | 1.2
11 | Cc1cccc(-n2ncc3ccc(NC(=O)[C@H](N)CCO)cc32)c1 [Compound 12, (R)-2-amino-4-hydroxy-N-(1-(m-tolyl)-1H-indazol-6-yl)butanamide hydrochloride] | 0.86
12 | Cc1cccc(-n2ncc3ccc(NC(=O)[C@@H](N)CCN)cc32)c1 [Compound 13, (S)-2,4-diamino-N-(1-(m-tolyl)-1H-indazol-6-yl)butanamide] | 0.35
13 | Cc1cccc(-n2ncc3ccc(NC(=O)[C@H](N)CN)cc32)c1 [Compound 14, (R)-2,3-diamino-N-(1-(m-tolyl)-1H-indazol-6-yl)propanamide dihydrochloride] | 1.1
14 | Cc1cccc(-n2ncc3ccc(NC(=O)[C@@H](N)CN)cc32)c1 [Compound 15, (S)-2,3-diamino-N-(1-(m-tolyl)-1H-indazol-6-yl)propanamide dihydrochloride] | 0.63
15 | Cc1cccc(-n2ncc3ccc(NC(=O)[C@H]4C[C@@H](N)C4)cc32)c1 [Compound 16, (cis)-3-amino-N-(1-(m-tolyl)-1H-indazol-6-yl)cyclobutanecarboxamide hydrochloride] | 0.6
16 | Cc1cccc(-n2ncc3ccc(NC(=O)[C@@H](N)[C@H](C)O)cc32)c1 [Compound 17, (2S,3S)-2-amino-3-hydroxy-N-(1-(m-tolyl)-1H-indazol-6-yl)butanamide hydrochloride] | 7

Row | Compound | IC50 [µM]
17 | Cc1cccc(-n2ncc3ccc(NC(=O)[C@H]4NCC[C@@H]4O)cc32)c1 [Compound 18, (2S,3S)-3-hydroxy-N-(1-(m-tolyl)-1H-indazol-6-yl)pyrrolidine-2-carboxamide hydrochloride] | 0.7
18 | Cc1cccc(-n2ncc3c(F)cc(NC(=O)[C@H]4NCC[C@@H]4O)cc32)c1 [Compound 19, (2S,3S)-N-(4-fluoro-1-(m-tolyl)-1H-indazol-6-yl)-3-hydroxypyrrolidine-2-carboxamide hydrochloride] | 0.52
19 | Cc1cccc(-n2ncc3ccc(NC(=O)[C@@H](N)[C@@H](C)O)cc32)c1 [Compound 20, (2S,3R)-2-amino-3-hydroxy-N-(1-(m-tolyl)-1H-indazol-6-yl)butanamide hydrochloride] | 0.72
20 | Cc1cccc(-n2ncc3ccc(NC(=O)[C@@H](N)C(C)(C)O)cc32)c1 [Compound 21, (S)-2-amino-3-hydroxy-3-methyl-N-(1-(m-tolyl)-1H-indazol-6-yl]butanamide hydrochloride] | 3.6
21 | Cc1cccc(-n2ncc3ccc(NC(=O)[C@@](C)(N)CO)cc32)c1 [Compound 22, (S)-2-amino-3-hydroxy-2-methyl-N-(1-(m-tolyl)-1H-indazol-6-yl)propanamide hydrochloride] | 0.42
22 | Cc1cccc(-n2ncc3c(F)cc(NC(=O)[C@@H](N)CO)cc32)c1 [Compound 23, (S)-2-amino-N-(4-fluoro-1-(m-tolyl)-1H-indazol-6-yl)-3-hydroxypropanamide hydrochloride] | 0.024
23 | CCCCCCCC(=O)OC[C@H](N)C(=O)Nc1ccc2cnn(-c3cccc(C)c3)c2c1 [Compound 24, (S)-2-amino-3-oxo-3-((1-(m-tolyl)-1H-indazol-6-yl)amino)propyl octanoate hydrochloride] | 12
24 | Cc1cccc(-n2ncc3ccc(NC(=O)[C@@H](N)COC(=O)c4cccnc4)cc32)c1 [Compound 25, (S)-2-amino-3-oxo-3-((1-(m-tolyl)-1H-indazol-6-yl)amino)propyl nicotinate hydrochloride] | > 1000
25 | CCCCCCCC(=O)OC[C@H](N)C(=O)Nc1cc(F)c2cnn(-c3cccc(C)c3)c2c1 [Compound 26, (S)-2-amino-3-((4-fluoro-1-(m-tolyl)-1H-indazol-6-yl)amino)-3-oxopropyl octanoate hydrochloride] | 8
26 | CCOC(=O)N[C@@H](COC(C)=O)C(=O)Nc1ccc2cnn(-c3cccc(C)c3)c2c1 [Compound 30, (S)-2-((ethyloxycarbonyl)amino)-3-oxo-3-((1-(m-tolyl)-1H-indazol-6-yl)amino)propyl acetate] | 24
27 | CC(=O)OC[C@H](NC(=O)OC(C)C)C(=O)Nc1ccc2cnn(-c3cccc(C)c3)c2c1 [Compound 31, (S)-2-((isopropoxycarbonyl)amino)-3-oxo-3-((1-(m-tolyl)-1H-indazol-6-yl)amino)propyl acetate] | 30
28 | CCOC(=O)N[C@@H](COC(=O)c1cccnc1)C(=O)Nc1ccc2cnn(-c3cccc(C)c3)c2c1 [Compound 32, (S)-2-((ethyloxycarbonyl)amino)-3-oxo-3-((1-(m-tolyl)-1H-indazol-6-yl)amino)propyl nicotinate] | > 1000
29 | Cc1cccc(-n2ncc3ccc(NC(=O)[C@H](COC(=O)c4cccnc4)NC(=O)OC(C)C)cc32)c1 [Compound 33, (S)-2-((isopropoxycarbonyl)amino)-3-oxo-3-((1-(m-tolyl)-1H-indazol-6-yl)amino)propyl nicotinate] | > 1000
30 | CCCCCCCC(=O)OC[C@H](NC(=O)OCC)C(=O)Nc1ccc2cnn(-c3cccc(C)c3)c2c1 [Compound 34, (S)-2-((ethoxycarbonyl)amino)-3-oxo-3-((1-(m-tolyl)-1H-indazol-6-yl)amino)propyl octanoate] | > 1000
31 | CCCCCCCC(=O)OC[C@H](NC(=O)OC(C)C)C(=O)Nc1ccc2cnn(-c3cccc(C)c3)c2c1 [Compound 35, (S)-2-((isoproxycarbonyl)amino)-3-oxo-3-((1-(m-tolyl)-1H-indazol-6-yl)amino)propyl octanoate] | 200
32 | CCOC(=O)N[C@@H](CO)C(=O)Nc1ccc2cnn(-c3cccc(C)c3)c2c1 [Compound 36, (S)-ethyl (3-hydroxy-1-oxo-1-((1-(m-tolyl)-1H indazol-6-yl)amino)propan-2-yl)carbamate] | 0.4
